Results: patent publication US20110105855A1, “EARLY DETECTION OF COGNITION IMPAIRMENT IN ELDERLY POPULATION” (TRUSTEES OF TUFTS COLLEGE, priority 2009, published 2011)

How the values were obtained:
[1] = parameters: species or system rhesus monkeys (Macaca mulatta); conditions: rhesus monkey, in vivo, 2.2 mg/kg/day
Text: Study 1. Lutein and Zeaxanthin Supplementation Study. Eighteen rhesus monkeys (Macaca mulatta) were reared on one of two semipurified diets, both of which contained adequate levels of all known nutrients, but no detectable xanthophylls as analyzed by our laboratory. The animals also received limited amounts of very low xanthophyll foods such as wheat or rice cereals, white rice, sweetened drinks and gelatin, pineapple and banana.
Beginning at 7-16 years of age, 6 of these monkeys were supplemented with pure lutein and 6 with pure zeaxanthin, at 3.9 μmol/kg/day (2.2 mg/kg/day). The lutein and zeaxanthin supplements were purified or synthesized by DSM Nutritional Products, Ltd. The supplements were inserted into marshmallows, sweetened gelatin or small pieces of fruit. Beadlets and individual supplement doses were stored at 4° C. in the dark. […]
Biopsy punches were used to dissect the central retina, containing the macula, into a 4 mm diameter circle centered on the fovea. Retinal tissue was analyzed for carotenoids as described previously (1). Cerebellum and occipital cortex samples were collected and analyzed for carotenoids as described by Park et al. (2). […]
Relationships between retina and brain tissue were evaluated using Pearson's correlation coefficients. For those relationships with sample size >6, p values were calculated.

[2] = elderly population of healthy 65 year olds; cited from earlier work
cognitive function = conditions: healthy older adults, intervention trial (Johnson et al. 2008); cited from earlier work

SMILES | Carotenoids found in brain tissue [1] | Average plasma level [2] | Effect of supplementation on cognitive function (cognitive function)
CC1=C[C@H](O)CC(C)(C)[C@H]1/C=C/C(C)=C/C=C/C(C)=C/C=C/C=C(C)/C=C/C=C(C)/C=C/C1=C(C)C[C@@H](O)CC1(C)C [Lutein] | the only carotenoid measured in brain tissue | 0.27 ± 0.15 µM | improve cognitive function
CC1=C(/C=C/C(C)=C/C=C/C(C)=C/C=C/C=C(C)/C=C/C=C(C)/C=C/C2=C(C)C[C@@H](O)CC2(C)C)C(C)(C)C[C@H](O)C1 [Zeaxanthin] | the only carotenoid measured in brain tissue | 0.032 ± 0.021 µM | –
